Source: PMC7876048, “Mutant-selective degradation by BRAF-targeting PROTACs” (Nature Communications, 2021)

What was measured:
[1] = tested on: CAL-12-T cells (Class 3, BRAF^G466V); experiment: Cell proliferation (MTS) assay; type: cell-based; details: 5 days
Protocol: […] 2 mg/ml MTS (Promega Corp., Madison, WI: G5421) and 25 μM phenazine methosulfate (Sigma, St. Louis, MO) were combined 19:1 and then added to cells (1 volume combined reagent: 5 volumes medium) and incubated for 1–3 h. Mitochondrial reduction of MTS to the formazan derivative was monitored by measuring the medium’s absorbance at 480 nm using a Perkin Elmer Envision Plate reader.

[2] = tested on: SK-MEL-28 cells (Class 1, BRAF^V600E); experiment: Cell proliferation (MTS) assay; type: cell-based; details: Homo sapiens, 72 h, 3 days, read-out: EC50, cell growth
[3] = molecular target: T1, BRAF^V600E (SK-MEL-28 cells, homozygous) (Homo sapiens, UniProt P15056, V600E); experiment: BRAF degradation by immunoblot in SK-MEL-28 cells; type: cell-based
T1 construct: endogenous in cells; host or cells: SK-MEL-28
T1 sequence (P15056 whole entry V600E): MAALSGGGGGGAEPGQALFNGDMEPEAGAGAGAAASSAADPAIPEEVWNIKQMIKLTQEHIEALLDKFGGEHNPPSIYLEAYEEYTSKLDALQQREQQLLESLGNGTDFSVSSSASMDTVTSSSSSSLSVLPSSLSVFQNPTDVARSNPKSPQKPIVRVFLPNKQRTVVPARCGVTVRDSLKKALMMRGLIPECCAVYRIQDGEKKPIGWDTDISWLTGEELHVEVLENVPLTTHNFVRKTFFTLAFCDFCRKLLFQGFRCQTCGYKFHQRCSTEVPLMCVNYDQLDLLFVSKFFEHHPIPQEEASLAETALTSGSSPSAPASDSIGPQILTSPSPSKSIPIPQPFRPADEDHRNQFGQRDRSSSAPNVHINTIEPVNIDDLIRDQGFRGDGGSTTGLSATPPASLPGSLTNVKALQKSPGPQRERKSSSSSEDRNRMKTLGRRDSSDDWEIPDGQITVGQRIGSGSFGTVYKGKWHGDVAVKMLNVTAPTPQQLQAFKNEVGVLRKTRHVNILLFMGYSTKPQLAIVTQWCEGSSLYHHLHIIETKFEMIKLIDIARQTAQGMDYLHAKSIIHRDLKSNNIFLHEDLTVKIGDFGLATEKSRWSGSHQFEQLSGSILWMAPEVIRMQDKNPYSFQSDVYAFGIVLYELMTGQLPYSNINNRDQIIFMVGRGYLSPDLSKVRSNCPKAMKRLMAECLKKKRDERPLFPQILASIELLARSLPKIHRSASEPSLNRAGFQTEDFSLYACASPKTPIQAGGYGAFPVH
Protocol: (§1) Cells were plated in 6 well dishes (5 × 10^5–8 × 10^5 cells) and allowed to attach overnight. […] The plates were then placed on ice and washed 1x with chilled PBS and lysed in buffer containing 25 mM Tris-HCl [pH 7.4], 0.25% sodium deoxycholate, 150 mM NaCl, 1% Triton X-100, supplemented with protease inhibitors (1x Roche protease inhibitor cocktail) and phosphatase inhibitors (10 mM NaF, 1 mM Na3OV4, and 20 mM β-glycerophosphate). Lysates were then cleared at 21,000 g for 10 min at 4 °C. Protein concentrations of the supernatants were then quantified using a Pierce BCA Protein Assay. 12–40 µg of protein were separated using a gradient (4–20%) Criterion TGX precast gel and transferred unto a nitrocellulose membrane. The membranes were then blocked in 5% non-fat milk in TBST (Tris-buffered Saline with Tween 20) for 1 h before probing with the indicated primary antibody overnight. Membranes were imaged using Bio-Rad Image Lab software using ECL prime detection reagent (GE Healthcare, RPN2232 or ThermoScientific, 34095).
(§2) Western blot data was quantified by using the band feature in Image Lab, and values were averaged and analyzed in GraphPad Prism. DC50 and DMAX values were fitted using a three parameter [inhibitor] versus response and reported directly from the Prism output. Mean ± SD and unpaired t-tests were performed in GraphPad Prism.

[4] = tested on: SK-MEL-239 C4 cells (BRAF^WT/BRAF-p61^V600E); experiment: Cell proliferation (MTS) assay; type: cell-based; details: 5 days
[5] = tested on: MEK and ERK phosphorylation (SK-MEL-28 cells); experiment: MEK and ERK phosphorylation by immunoblot in SK-MEL-28 cells; type: cell-based
Protocol: as §1, §2

[6] = tested on: SK-MEL-246 cells (Class 2, BRAF^G469A); experiment: Cell proliferation (MTS) assay; type: cell-based
[7] = molecular target: BRAF V600E (Homo sapiens, UniProt P15056, V600E); experiment: Elisa kinase inhibition assay (Carna Biosciences); type: biochemical; design: purchased Carna Biosciences; details: Km ATP, duplicate
Sequence of BRAF V600E (P15056 whole entry V600E): as above
Protocol: Kinase assays were performed by Carna Biosciences by their protocol in duplicate using Km amounts of ATP calculated for each kinase.

[8] = tested on: H1666 cells (Class 3, BRAF^G466V); experiment: Cell proliferation (MTS) assay; type: cell-based; details: 5 days

With `CCCS(=O)(=O)Nc1ccc(F)c(C(=O)c2c[nH]c3ncc(-c4ccc(N5CCN(CC(=O)N[C@H](C(=O)N6C[C@@H](O)C[C@H]6C(=O)NCc6ccc(-c7scnc7C)cc6)C(C)(C)C)CC5)cc4)cc23)c1F` [SJF-0661] the “inhibition of cell growth / effect on cell viability” value [1] was “minimal effect on cell viability”, the EC50 [2] was 243 ± 1.09 nM and the “effect on BRAF protein levels” value [3] was “did not decrease BRAF protein levels”. The “effect on cell growth” value [4] was “minimal effect”, the “concentration giving maximal inhibition of MEK and ERK phosphorylation / maximal suppression of p-ERK” value [5] was 100 nM and the EC50 ([6]; 120 h, 5-day treatment, read-out: EC50, cell growth) was 278 ± 1.07 nM. For the same compound, the IC50 [7] was 30 nM.
In the case of `CCCS(=O)(=O)Nc1ccc(F)c(C(=O)c2c[nH]c3ncc(-c4ccc(Cl)cc4)cc23)c1F` [vemurafenib, reference compound], the “inhibition of cell growth / effect on cell viability” value [1] is reported as “minimal effect on cell viability”, the EC50 [2] is reported as 215 ± 1.09 nM and the cell growth inhibition [8] is reported as “less than 50%”. The “effect on cell growth” value [4] was “minimal effect” and the “inhibition of cellular growth” value ([6]; 5 days, at concentrations above 1 μM, not sustained at 10 μM) was “some inhibition”.
